We go through two molecules from US20180318199A1, “Pharmaceutical Composition Having Anti-Aging Properties against High-Glucose” (TAIWAN LEADER BIOTECH CORP., priority 2017, published 2018).

The nature of experiment [1]: Cell-free DPPH free-radical scavenging assay. It counts as biochemical. The note with it: cell-free system. The method, then:
Therefore, next to determine whether ANM acts directly as a free-radical scavenger, a cell-free DPPH free-radical scavenging assay is performed. In FIG. 5A, to determine the free-radical scavenging effect of ANM, cell-free DPPH assay is performed.

Experiment [2] has as its system Nrf2. As to the kind of experiment: Nrf2 nuclear localization by immunofluorescence in HNDFs. Type of experiment: cell-based, human. The settings on record: ANM 10 μM or NAC 100 μM, 2 h. On the procedure:
Transcriptional activation of Nrf2 is dependent upon the rate of […] followed by disassociation from cytoplasmic Keap-1. In FIG. 5F, to determine the nuclear localization of Nrf2, HNDFs are incubated with ANM (10 μM) or NAC (100 μM) in the presence or absence or HG (30 mM) for 2 h. The protein expression and localization of Nrf2 are measured by immunofluorescence using Nrf2 specific primary antibody and fluorescein isothiocyanate-conjugated secondary antibody (green). The subcellular and nuclear localization of Nrf2 is photographed using a fluoroscence microscope. DAPI (1 μM) is used to stain the nucleus.
HNDFs at a density of 1×10^4 cells/well are cultured in an eight-well glass Nunc Lab-Tek chamber (ThermoFisher Scientific, Waltham, Mass.). Cells are treated with ANM or NAC in the presence or absence of HG for 2-72 h. After incubation, culture medium is removed and cells are fixed in 4% paraformaldehyde for 15 min, permeabilized with 0.1% Triton X-100 for 10 min, washed and blocked with 10% FBS in PBS, and then incubated overnight with the corresponding primary antibodies in 1.5% FBS. […] Next, the cells are stained with 1 μg/mL 4′,6-diamidino-2-phenylindole (DAPI, Cell Signaling Technology) for 5 min, washed with PBS, and visualized using a fluorescence microscope (Motic Electric Group) at 40× magnification.

Experiment [3] concerns HO-1 and NQO-1. As to the kind of experiment: Western blot of HO-1 and NQO-1 in HUVECs. It counts as cell-based, human. The note with it: for NQO-1 expression in HUVECs: western blot, HG. The method, then: The intracellular ROS level is quantified by utilizing DCFH-DA assay. […] However, treatment of HUVECs with ANM resulted reduced ROS levels (6.1-fold), compared with HUVECs in HG that are not treated with ANM. In addition, in FIG. 9G, western blot analysis is performed to determine the protein expression levels of HO-1 and NQO-1.
(§1) Cells are lysed by either RIPA lysis buffer or nuclear and cytoplasmic extraction reagents (Thermo Fisher Scientific). Protein concentrations are determined by Bio-Rad protein assay reagent (Bio-Rad Laboratories, Hercules, Calif.). Equal amounts of protein samples (60 μg) are separated by 7-12% SDS-PAGE and the separated proteins are transferred onto polyvinylidene […] (PVDC) membrane overnight. The transferred protein membranes are blocked with 5% non-fat dried milk for 30 min, followed by incubation with specific primary antibodies overnight, and either horseradish peroxidase-conjugated goat anti-rabbit or anti-mouse antibodies for 2 h. The blots are detected using VL Chemi-Smart 3000 (Viogene Biotek, Sunnyvale, Calif.) with the enhanced chemiluminescence (ECL) western blotting reagent (Millipore, Billerica, Mass.).
Background: In western blotting, separated proteins are transferred to a membrane and probed.

Experiment [4] deals with pRb, cyclin D1, cyclin E, cyclin B1, CDK4, CDK6, CDK2 and Cdc2. Nature of the experiment: Western blot of cell-cycle regulatory proteins in HNDFs. Type of experiment: cell-based, human. The note with it: 72 h; for cyclin D1, CDK4, CDK6, cyclin E and CDK2 protein levels under HG: ANM 10 μM or NAC 100 μM + HG 30 mM. On the procedure:
To further clarify this effect, G1-S transition regulatory proteins are determined by immunoblotting. In FIG. 3B, western blot analysis is performed to determine the expression levels of cell-cycle regulatory proteins including, pRb, cyclin D1, cyclin E, cyclin B1, CDK4, CDK6, CDK2 and Cdc2; and GAPDH is served as an internal control.
as §1

Experiment [5] concerns SMP30. As to the kind of experiment: SMP30 immunofluorescence in HNDFs. Type of experiment: cell-based, human. The note with it: ANM 10 μM or NAC 100 μM + HG 30 mM, 72 h. The method, then: In FIG. 4C, SMP30 expression provided by ANM is examined. HNDFs are incubated with ANM (10 μM) or NAC (100 μM) in the presence or absence of HG (30 mM) for 72 h. The protein expression of SMP30 is measured by immunofluorescence using SMP30 specific primary antibody and fluorescein isothiocyanate-conjugated secondary antibody (green). The cellular localization of SMP30 is photographed using a fluorescence microscope. 4′,6-diamidino-2-phenylindole (DAPI) (1 μM) is used to stain the nucleus.
HNDFs at a density of 1×10^4 cells/well are cultured in an eight-well glass Nunc Lab-Tek chamber (ThermoFisher Scientific, Waltham, Mass.). Cells are treated with ANM or NAC in the presence or absence of HG for 2-72 h. After incubation, culture medium is removed and cells are fixed in 4% paraformaldehyde for 15 min, permeabilized with 0.1% Triton X-100 for 10 min, washed and blocked with 10% FBS in PBS, and then incubated overnight with the corresponding primary antibodies in 1.5% FBS. The cells are then incubated with the fluorescein isothiocyanate (FITC)-conjugated secondary antibody (Alexa fluor 488, ThermoFisher Scientific) for another 1 h in 6% bovine serum albumin (BSA). Next, the cells are stained with 1 μg/mL 4′,6-diamidino-2-phenylindole (DAPI, Cell Signaling Technology) for 5 min, washed with PBS, and visualized using a fluorescence microscope (Motic Electric Group) at 40× magnification.

In experiment [6] the test system is Keap-1. As to the kind of experiment: Keap-1 protein level and ubiquitination (western blot, immunoprecipitation) in HNDFs. It counts as cell-based, human. The settings on record: for ubiquitination of total protein: HNDFs treated with ANM or NAC. The method, then:
Under normal physiological condition, Nrf2 is sequestered in the cytoplasm, where it associated with Keap-1, an actin-binding protein. Upon chemical treatment or oxidative stress conditions, the steady-state levels of Keap-1 is rapidly degraded through the ubiquitin-dependent proteasome pathway, which eventually causes Nrf2 accumulation and transcriptional activity. […] In FIG. 5H, the Keap-1 protein expression level is determined by western blotting.
In FIG. 5I, effect of ANM on ubiquitination of Keap-1 is examined. Equivalent amount of proteins are immune-precipitated with Keap-1 antibody and visualized by western blotting with ubiquitin antibody. […] Results are expressed as mean±S.E.M of three independent experiments. Statistical significance is set at ^ϕP<0.05 as compared to NG vs. HG or ANM alone or NAC alone and *P<0.05 as compared to HG vs. samples. […] Therefore, it is further examined whether AKT and ERK1/2 have any influence on Keap-1 ubiquitination. Cells are co-incubated with AKT, p38MAPK, JNK and ERK1/2 inhibitors in the presence of […]; and the Keap-1 ubiquitination is examined.
HNDFs are seeded at a density of 1×10^6 cells/dish in 10 cm dish and treated with ANM or pharmacological inhibitors of AKT, JNK/SAPK, p38 MAPK and ERK1/2 in the presence or absence of HG. After treatment, cells are lysed with RIPA buffer containing protease inhibitor cocktail. The lysates are homogenized and centrifuged at 16,000×g for 15 min at 4° C. The supernatant is collected and the protein concentration is determined by Bio-Rad protein assay reagent. Total protein extract containing 500 μg of proteins are precleared with protein-A agarose beads for 1 h and incubated with 3 μg of anti-Keap-1 antibody for overnight at 4° C. with gently shake. After overnight incubation, centrifuged at 2000×g for 5 min at 4° C., the supernatant is discarded and the reaming pellet is washed with RIPA buffer. Immunoprecipitated complexes are mixed with SDS sample buffer and denatured at 94° C. for 5 min. Equal amount of protein samples are subjected to western blotting. The ubiquitinated Keap-1 protein levels are determined by ubiquitin antibody.

Consider `C=C(CCC(C)C1CCC2C3=C(C(=O)C(O)C21C)C1(C)CCC(O)C(C)C1CC3)C(C)C(=O)O` (stereo not drawn) [ANM, antcin M], for which, in experiment [1], the “free-radical scavenging effect (DPPH)” value is given as “fails to scavenge free radicals”. Besides, the “Nrf2 expression in the nucleus” value in experiment [2] was “elevated Nrf2 expression in the nucleus”. In experiment [3] (ANM 10 μM or RES 5 μM + HG), the “HO-1 expression in HUVECs in HG” value was “significantly increase”. Besides, the “NQO-1 expression in HUVECs” value in experiment [3] is given as “unaffected”. In experiment [4] (ANM 10 μM + HG 30 mM), the “cyclin B1 and Cdc2 levels” value is recorded as “unaffected”; the “protein Rb phosphorylation under HG” value was “significantly inhibits”. Besides, in experiment [4], the “cyclin D1, CDK4, CDK6, cyclin E and CDK2 protein levels under HG” value is “upregulated”. Also, the “HG-induced reduction in SMP30 (immunofluorescence)” value in experiment [5] was “significantly prevented”. For the same molecule, the “ubiquitination of Keap-1, co-incubated with HG” value in experiment [6] (ANM + HG) was “further increase”. In addition, in experiment [6] (ANM alone or in HG-induced condition), the Keap-1 protein level entry is listed as “significantly decreased”. The “ubiquitination of Keap-1” value in experiment [6] (ANM alone, immunoprecipitation with anti-Keap-1) was “remarkable increase”. The “ubiquitination of total protein” value in experiment [6] is “significant increase”.
As to `CC(=O)N[C@@H](CS)C(=O)O` [NAC, N-acetylcysteine, reference compound], the “free-radical scavenging effect (DPPH)” value in experiment [1] is “potent free-radical scavenging effect”. The “Nrf2 expression in the nucleus” value in experiment [2] is “elevated Nrf2 expression in the nucleus”. In experiment [3], the “NQO-1 expression in HUVECs” value is listed as “unaffected”. In addition, the “cyclin D1, CDK4, CDK6, cyclin E and CDK2 protein levels under HG” value in experiment [4] is “partially rescues”. Further, the “HG-induced reduction in SMP30 (immunofluorescence)” value in experiment [5] is given as “partially prevented”. The “ubiquitination of total protein” value in experiment [6] is recorded as “significant increase”.
